Assay results taken from patent US9951065B2 (Gilead Sciences, Inc., priority 2015, dated 2018).

biological target: T1, IDO1 (Homo sapiens, UniProt P14902); assay: Cell-based (HeLa) assay for measurement of IDO1 inhibition (kynurenine levels in supernatant after IFNγ induction); conditions: HeLa cells, IFNγ-induced IDO1, kynurenine in supernatant after 48 hour incubation; geometric mean of a minimum of four determinations
T1 construct: HeLa cells were treated with a test compound in the presence of IFNγ, which induces IDO1 expression; host or cells: H1-HeLa cells, IDO1 induced with IFNγ
Summary of the method: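 HeLa cells, 1,250 per well, treated with compound (0.5% DMSO final) plus IFNγ to induce IDO1, for 48 h. Supernatant kynurenine measured by TCA hydrolysis at 60 °C, then p-dimethylaminobenzaldehyde, absorbance 480 nm. EC50 from a four-parameter fit normalized to −/+IFNγ controls; geometric mean of at least four runs.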

T1 sequence (P14902 whole entry): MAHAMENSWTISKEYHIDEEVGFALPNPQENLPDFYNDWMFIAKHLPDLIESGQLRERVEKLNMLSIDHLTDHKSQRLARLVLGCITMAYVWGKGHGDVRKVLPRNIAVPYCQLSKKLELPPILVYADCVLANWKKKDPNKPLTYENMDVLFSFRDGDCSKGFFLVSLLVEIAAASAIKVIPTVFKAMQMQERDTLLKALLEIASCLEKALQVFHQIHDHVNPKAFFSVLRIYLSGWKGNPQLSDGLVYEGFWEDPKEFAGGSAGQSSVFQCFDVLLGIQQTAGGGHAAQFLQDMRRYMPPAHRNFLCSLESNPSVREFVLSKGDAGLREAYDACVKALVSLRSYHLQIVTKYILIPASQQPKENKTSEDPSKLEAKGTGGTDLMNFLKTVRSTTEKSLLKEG

| EC50 [nM] | Structure (SMILES) |
| --- | --- |
| 501 | CN(C)CCc1nc2nccc(/C(=N/O)Nc3cccc(Br)c3)c2[nH]1 [Example 265, N-(3-bromophenyl)-2-(2-(dimethylamino)ethyl)-N′-hydroxy-1H-imidazo[4,5-b]pyridine-7-carboximidamide] |
| 4450 | O=c1onc(-c2ccnc3nc(CO)[nH]c23)n1-c1ccc(F)c(Cl)c1 [Example 111, 4-(3-Chloro-4-fluorophenyl)-3-(2-(hydroxymethyl)-1H-imidazo[4,5-b]pyridin-7-yl)-1,2,4-oxadiazol-5(4H)-one] |

More lines, now with the values behind:

| Structure (SMILES) | EC50 [nM] |
| --- | --- |
| CN1CCCC(Nc2nc3nccc(/C(=N/O)Nc4ccc(F)c(Cl)c4)c3[nH]2)C1 (stereo not shown) [Example 278, N-(3-chloro-4-fluorophenyl)-N′-hydroxy-2-((1-methylpiperidin-3-yl)amino)-1H-imidazo[4,5-b]pyridine-7-carboximidamide] | 1070 |
| O/N=C(\Nc1ccc(F)c(Cl)c1)c1cc(F)c(F)c2nc(NCCN3CCC(F)(F)CC3)[nH]c12 [Example 36, N-(3-Chloro-4-fluorophenyl)-2-((2-(4,4-difluoropiperidin-1-yl)ethyl)amino)-4,5-difluoro-N′-hydroxy-1H-benzo[d]imidazole-7-carboximidamide] | 712 |

same assay, conditions: HeLa cells, IFNγ-induced IDO1, kynurenine in supernatant, 48 hour incubation; geometric mean of a minimum of four determinations

| EC50 [nM] | Structure (SMILES) |
| --- | --- |
| 790 | CN(CCc1nc2nccc(/C(=N/O)Nc3ccc(F)c(Cl)c3)c2[nH]1)Cc1ccccc1 [Example 396, 2-(2-(benzyl(methyl)amino)ethyl)-N-(3-chloro-4-fluorophenyl)-N′-hydroxy-1H-imidazo[4,5-b]pyridine-7-carboximidamide] |
| 2930 | CN(C)CCCCNc1nc2c(F)c(F)cc(/C(=N/O)Nc3ccc(F)c(Cl)c3)c2[nH]1 [Example 303, N-(3-chloro-4-fluorophenyl)-2-((4-(dimethylamino)butyl)amino)-4,5-difluoro-N′-hydroxy-1H-benzo[d]imidazole-7-carboximidamide] |
| > 10000 | CN(C(=NO)c1ccnc2nc[nH]c12)c1ccc(F)c(Cl)c1 [Example 369, N-(3-chloro-4-fluorophenyl)-N′-hydroxy-N-methyl-1H-imidazo[4,5-b]pyridine-7-carboximidamide] |
